The text below walks through data of ChEMBL document CHEMBL1201862, “PubChem BioAssay data set” (2004).

Data set [1] in a line: luciferase reporter signal suppression in cells – H4 neuroglioma cells, luminescence, dose response (AID 1990). It is filed as functional, cell-based. (In general: A reporter such as luciferase makes a cellular process visible.)
Data set [2] has as its system BJ. In words: BJ-TERT fibroblast viability loss – cell-based, RAS-independent, luminescence, dose response (AID 1933). It is filed as functional. The note with it: Homo sapiens.
Data set [3] is described as follows: Luminescence Cell-Based Dose Response HTS to Identify Inhibitors of 5'UTR Stem-Loop Driven Prion Protein mRNA Translation in H4 Neuroglioblastoma Cells. [Related pubchem assays: 1827 (Project Summary), 1813 (Primary HTS)]. It is filed as functional.
A short description of data set [4]: alpha-synuclein stem-loop luciferase translation blockers – H4 neuroglioma cells, luminescence, confirmation (AID 1988). Format: functional, cell-based.
Data set [5] has as its system BJ. In words: cells. It is filed as functional, cell-based. To be noted: Homo sapiens.
The subject of data set [6] is BJ. Nature of the data set: BJ-TERT-LT-ST fibroblast viability loss – cell-based, RAS-independent, luminescence, dose response (AID 1935).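 Note: BJ fibroblasts immortalized with TERT plus LT and ST oncogenes.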 Format: functional. To be noted: Homo sapiens.
A short description of data set [7]: DRD fibroblast viability loss – cell-based, non-viral oncogenic, luminescence, dose response (AID 1934). To be noted: Homo sapiens. Format: functional.
Data set [8] can be described thus: Luminescence Cell-Based Dose Retest to Confirm Inhibitors of Cancer Stem Cells. [Related pubchem assays (depositor defined):AID2717, AID2721]. Format: functional. To be noted: Homo sapiens.
The subject of data set [9] is BJ. In words: growth inhibition of engineered Ras-driven BJ cells – cell-based, alamar blue fluorescence, cherrypicked samples, dose response (AID 2631).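 Note: confirmatory dose-response assay in RAS-dependent BJ fibroblasts engineered with TERT, LT and ST, with cytotoxicity read by fluorescence.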 It is filed as functional. The note with it: Homo sapiens.
The target of the next data set is Cytochrome P450 2C19 (Homo sapiens, UniProt P33261). In words: Cytochrome panel assay with activity outcomes. Panel member name: p450-cyp2c19 Compounds with AC50 equal or less than 10 uM are considered active. To be noted: read-out: AC50. It is filed as functional.
Chain of Cytochrome P450 2C19 (P33261 whole entry): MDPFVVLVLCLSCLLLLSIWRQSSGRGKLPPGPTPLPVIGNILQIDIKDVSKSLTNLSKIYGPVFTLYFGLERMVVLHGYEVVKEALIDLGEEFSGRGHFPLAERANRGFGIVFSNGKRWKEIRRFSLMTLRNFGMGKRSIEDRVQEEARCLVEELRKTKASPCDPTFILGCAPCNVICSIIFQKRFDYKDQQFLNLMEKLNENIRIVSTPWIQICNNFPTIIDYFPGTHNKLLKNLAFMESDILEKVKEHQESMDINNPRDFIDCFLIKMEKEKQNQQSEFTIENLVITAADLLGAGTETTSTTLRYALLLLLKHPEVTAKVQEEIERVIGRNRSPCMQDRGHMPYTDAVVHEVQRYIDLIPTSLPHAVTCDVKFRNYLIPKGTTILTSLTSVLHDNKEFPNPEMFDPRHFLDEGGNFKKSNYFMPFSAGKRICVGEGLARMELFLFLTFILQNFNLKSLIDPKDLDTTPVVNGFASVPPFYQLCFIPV
The next data set addresses Cytochrome P450 2C9 (Homo sapiens, UniProt P11712).
The target in another data set is Cytochrome P450 3A4 (Homo sapiens, UniProt P08684).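 Note: CYP3A4 tested as one member of a cytochrome P450 panel screen.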
Chain of Cytochrome P450 3A4 (P08684 whole entry): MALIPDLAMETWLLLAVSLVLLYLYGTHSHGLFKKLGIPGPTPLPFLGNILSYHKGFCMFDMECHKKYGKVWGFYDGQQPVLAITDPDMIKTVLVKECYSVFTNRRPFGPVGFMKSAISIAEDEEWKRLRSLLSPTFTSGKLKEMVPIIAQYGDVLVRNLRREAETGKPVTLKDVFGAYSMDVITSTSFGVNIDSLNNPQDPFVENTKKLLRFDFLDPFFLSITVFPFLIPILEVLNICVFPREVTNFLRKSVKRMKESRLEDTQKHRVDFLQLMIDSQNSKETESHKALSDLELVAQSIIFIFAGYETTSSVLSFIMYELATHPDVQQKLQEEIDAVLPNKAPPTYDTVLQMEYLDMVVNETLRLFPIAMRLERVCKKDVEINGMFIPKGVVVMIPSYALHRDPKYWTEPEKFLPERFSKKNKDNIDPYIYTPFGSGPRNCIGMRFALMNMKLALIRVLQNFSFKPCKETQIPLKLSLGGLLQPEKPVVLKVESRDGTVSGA
The next data set deals with T1, Cytochrome P450 1A2 (Homo sapiens, UniProt P05177).
T1 sequence (P05177 whole entry): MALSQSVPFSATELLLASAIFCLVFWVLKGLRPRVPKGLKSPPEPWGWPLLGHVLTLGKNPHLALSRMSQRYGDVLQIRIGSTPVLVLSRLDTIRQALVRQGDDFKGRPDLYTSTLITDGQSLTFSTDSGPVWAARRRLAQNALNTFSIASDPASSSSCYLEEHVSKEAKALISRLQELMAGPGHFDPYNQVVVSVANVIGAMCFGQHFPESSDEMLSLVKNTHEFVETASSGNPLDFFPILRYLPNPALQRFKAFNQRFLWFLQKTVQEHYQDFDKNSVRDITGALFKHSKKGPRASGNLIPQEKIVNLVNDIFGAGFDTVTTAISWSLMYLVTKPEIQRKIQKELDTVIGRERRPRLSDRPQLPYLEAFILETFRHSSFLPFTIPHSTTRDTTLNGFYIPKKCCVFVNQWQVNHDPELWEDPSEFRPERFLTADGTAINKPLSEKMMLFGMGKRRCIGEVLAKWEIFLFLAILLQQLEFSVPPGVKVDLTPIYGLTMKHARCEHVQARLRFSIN

The nature of data set [10]: reduction of Shn3 3'UTR-driven luciferase in osteoblasts – cell-based, Clone20 osteoblasts, firefly luciferase, cherry-picked, dose response (AID 624132).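 Note: firefly luciferase luminescence from reporter carrying the Shn3 3'UTR in osteoblasts.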 Format: functional.
A short description of data set [11]: non-specific 3'UTR reporter inhibition in Clone20-Shn3RL – cell-based, Renilla luciferase, cherry-picked, counter-screen for Shn3 inhibitor project, dose response (AID 624133). Format: functional.
For the next data set, the target named is Protein Wnt-3a (Mus musculus, UniProt P27467). Nature of the data set: antagonism of Wnt3a pathway luciferase reporter – Wnt-LIGHT cells, luminescence, selectivity assay for Gli-SUFU antagonist project, dose response (AID 651570).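 Note: Wnt-LIGHT reporter cells stimulated with conditioned medium from Wnt3a-producing cells.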 Format: functional. To be noted: read-out: IC50_Mean.
Chain of Protein Wnt-3a (P27467 whole entry): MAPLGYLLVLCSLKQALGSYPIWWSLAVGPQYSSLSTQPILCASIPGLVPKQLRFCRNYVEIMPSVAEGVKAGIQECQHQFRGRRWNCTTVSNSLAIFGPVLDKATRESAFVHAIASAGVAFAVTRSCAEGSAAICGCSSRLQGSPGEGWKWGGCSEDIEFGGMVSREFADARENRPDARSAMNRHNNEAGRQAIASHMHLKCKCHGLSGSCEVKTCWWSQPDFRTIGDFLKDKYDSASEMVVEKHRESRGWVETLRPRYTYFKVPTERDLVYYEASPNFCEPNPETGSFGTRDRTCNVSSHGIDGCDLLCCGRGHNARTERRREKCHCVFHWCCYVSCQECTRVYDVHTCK
Data set [12] in a line: microbe, parasite or virus in culture. Format: functional. The note with it: Mycobacterium tuberculosis.
Data set [13] in a line: viability of PTEN-deleted HCT116 cells – cell-based, HCT116 PTEN knockout, dose response (AID 1047).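 Note: HCT116 colon tumor cells with PTEN knocked out; cells exposed to compound for 60 hours before readout; potency for loss of cell viability measured by luminescence.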 Format: functional.
The nature of data set [14]: viability of HCT116 lacking mutant beta-catenin – cell-based, human colon tumor, dose response (AID 1045).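 Note: HCT116 colon tumor cells with beta catenin knocked out; cells exposed to compound for 60 hours.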 Format: functional.
Another data set deals with INS1. Nature of the data set: INS-1E survival protection against cytokine death – cell-based, luminescence, retest, dose response (AID 449756).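 Note: cell death triggered by IL-1 beta plus TNF-alpha plus IFN-gamma mixture; protective hits raise ATP signal compared with cytokine alone wells.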 It is filed as functional. The note with it: Rattus norvegicus.
Data set [15] can be described thus: cells. It is filed as functional, cell-based.
A short description of data set [16]: cells. It is filed as functional, cell-based. This is another data set of the same source.
Data set [17] addresses T2, Microphthalmia-associated transcription factor (Homo sapiens, UniProt O75030).
T2 sequence (O75030 whole entry): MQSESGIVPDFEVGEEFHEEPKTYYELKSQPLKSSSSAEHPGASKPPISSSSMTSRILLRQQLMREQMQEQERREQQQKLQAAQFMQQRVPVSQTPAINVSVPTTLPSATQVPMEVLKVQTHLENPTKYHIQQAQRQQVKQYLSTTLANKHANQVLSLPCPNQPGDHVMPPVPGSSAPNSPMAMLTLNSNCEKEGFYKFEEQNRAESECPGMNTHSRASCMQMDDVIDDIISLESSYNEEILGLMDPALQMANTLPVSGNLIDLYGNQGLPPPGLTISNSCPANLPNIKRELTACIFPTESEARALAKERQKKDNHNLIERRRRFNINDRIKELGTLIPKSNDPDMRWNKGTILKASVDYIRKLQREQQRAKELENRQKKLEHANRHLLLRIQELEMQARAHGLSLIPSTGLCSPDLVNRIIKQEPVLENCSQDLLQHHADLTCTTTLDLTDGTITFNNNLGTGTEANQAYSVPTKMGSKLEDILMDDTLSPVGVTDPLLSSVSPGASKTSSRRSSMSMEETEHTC
Nature of the data set: reducers of TRPM1 reporter luminescence, concentration series – cell-based, SK-MEL-5, cherry-picked, set 3, MITF inhibitor project, dose response (AID 493073).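 Note: SK-MEL-5 melanoma cells with luciferase driven by the MITF target TRPM1 promoter.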 It is filed as functional.

For data set [18], the target named is T3, Replicative DNA helicase DnaB (Mycobacterium tuberculosis, UniProt P9WMR3).
T3 sequence (P9WMR3 whole entry): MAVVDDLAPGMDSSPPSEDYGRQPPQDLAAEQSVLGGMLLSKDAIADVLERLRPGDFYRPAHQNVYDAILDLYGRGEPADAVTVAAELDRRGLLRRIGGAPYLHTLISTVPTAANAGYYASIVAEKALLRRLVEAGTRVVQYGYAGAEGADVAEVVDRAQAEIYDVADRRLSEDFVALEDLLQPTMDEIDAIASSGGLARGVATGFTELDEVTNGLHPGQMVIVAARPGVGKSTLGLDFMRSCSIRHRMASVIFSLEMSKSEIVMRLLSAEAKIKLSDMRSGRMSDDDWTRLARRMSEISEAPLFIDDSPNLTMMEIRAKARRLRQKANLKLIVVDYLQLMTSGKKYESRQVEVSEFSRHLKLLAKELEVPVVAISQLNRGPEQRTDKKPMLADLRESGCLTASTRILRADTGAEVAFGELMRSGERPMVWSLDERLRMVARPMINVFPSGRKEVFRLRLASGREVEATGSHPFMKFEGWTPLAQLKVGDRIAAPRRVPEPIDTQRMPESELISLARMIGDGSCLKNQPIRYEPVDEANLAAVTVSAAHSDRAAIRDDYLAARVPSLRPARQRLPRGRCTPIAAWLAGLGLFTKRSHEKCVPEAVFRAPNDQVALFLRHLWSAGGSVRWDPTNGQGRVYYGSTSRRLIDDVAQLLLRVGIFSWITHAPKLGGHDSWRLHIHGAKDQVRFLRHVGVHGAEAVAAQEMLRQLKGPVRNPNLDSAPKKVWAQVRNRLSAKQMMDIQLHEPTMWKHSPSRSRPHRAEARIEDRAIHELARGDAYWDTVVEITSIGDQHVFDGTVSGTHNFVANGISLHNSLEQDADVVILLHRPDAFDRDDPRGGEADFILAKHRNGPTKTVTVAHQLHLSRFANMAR
In words: DnaB intein splicing inhibitors, dose response, biochemical, cell-free fluorescence (AID 449749). It is filed as functional.

The target of another data set is T4, Protein RecA (Mycobacterium tuberculosis, UniProt P9WHJ3).
T4 sequence (P9WHJ3 whole entry): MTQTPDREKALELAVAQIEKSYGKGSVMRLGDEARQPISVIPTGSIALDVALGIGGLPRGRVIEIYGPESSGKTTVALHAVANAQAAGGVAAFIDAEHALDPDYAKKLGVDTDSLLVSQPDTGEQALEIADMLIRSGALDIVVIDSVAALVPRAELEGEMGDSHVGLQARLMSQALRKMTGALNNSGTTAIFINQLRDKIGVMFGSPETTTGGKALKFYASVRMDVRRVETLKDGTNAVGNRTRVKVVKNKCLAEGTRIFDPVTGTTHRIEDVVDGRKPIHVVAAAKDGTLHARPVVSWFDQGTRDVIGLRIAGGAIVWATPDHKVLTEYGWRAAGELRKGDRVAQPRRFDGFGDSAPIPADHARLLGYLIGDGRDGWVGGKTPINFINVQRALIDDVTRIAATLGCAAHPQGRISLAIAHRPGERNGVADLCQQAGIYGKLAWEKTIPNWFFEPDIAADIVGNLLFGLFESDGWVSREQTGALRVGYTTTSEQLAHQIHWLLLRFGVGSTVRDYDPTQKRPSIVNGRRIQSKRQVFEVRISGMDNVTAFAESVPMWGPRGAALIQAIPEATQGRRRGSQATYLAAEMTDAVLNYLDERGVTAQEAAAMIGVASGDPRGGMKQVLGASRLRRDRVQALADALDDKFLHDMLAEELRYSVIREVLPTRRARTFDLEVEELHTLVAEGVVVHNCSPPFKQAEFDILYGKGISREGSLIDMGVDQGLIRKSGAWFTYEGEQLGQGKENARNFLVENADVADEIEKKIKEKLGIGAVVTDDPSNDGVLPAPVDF
Nature of the data set: Fluorescence Cell-Free Homogeneous Dose Retest to Identify Inhibitors of RecA-Intein Splicing Activity. [Related pubchem assays (depositor defined):AID2097, AID2223, AID489010, AID492950]. It is filed as functional.

A short description of data set [19]: loss of viability in HepG2 cells – cell-based, CellTiter-Glo, cherry-picked, cytotoxicity control for Shn3 inhibitor project, dose response (AID 624134). Format: functional.
The nature of data set [20]: Fluorescence-based cell-based high throughput dose response assay for inhibitors of the interaction of nucleotide-binding oligomerization domain containing 2 (NOD2) and the receptor-interacting serine-threonine kinase 2 (RIPK2). The note with it: Homo sapiens. Format: functional.

The source made the active and inactive calls. Bounds are passed on as bounds.

Chain of Cytochrome P450 2C9 (P11712 whole entry): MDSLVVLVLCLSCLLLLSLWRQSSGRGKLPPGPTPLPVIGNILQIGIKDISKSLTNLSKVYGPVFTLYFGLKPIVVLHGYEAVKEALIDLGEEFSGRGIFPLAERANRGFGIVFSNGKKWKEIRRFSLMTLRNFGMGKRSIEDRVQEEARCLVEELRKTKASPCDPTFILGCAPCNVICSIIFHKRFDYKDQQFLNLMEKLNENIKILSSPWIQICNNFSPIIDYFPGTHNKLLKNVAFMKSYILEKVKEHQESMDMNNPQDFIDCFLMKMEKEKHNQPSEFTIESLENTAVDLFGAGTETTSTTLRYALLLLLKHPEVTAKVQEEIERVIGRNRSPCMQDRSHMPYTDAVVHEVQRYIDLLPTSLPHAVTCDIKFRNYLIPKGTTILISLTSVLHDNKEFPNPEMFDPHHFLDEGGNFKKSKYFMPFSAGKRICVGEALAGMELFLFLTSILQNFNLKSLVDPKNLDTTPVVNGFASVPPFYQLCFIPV

A word on the EC50: it is the concentration giving half of the maximal effect. In general, AC50 refers to the concentration giving half of the maximal activity seen. For `O=Cc1cc2ccccc2nc1SCc1ccc(Cl)cc1`, the EC50 in data set [1] was 9.87 µM (active); with BJ [2], 0.635 µM (active); in [3], 0.745 µM (active); in data set [4], 0.724 µM (active); in the data set on BJ [5] it was 0.699 µM (active); in the data set with BJ [6], 0.434 µM (active). In addition, the figures for the EC50 (in data set [7]; in the data set with BJ [9]) were 1.1 µM (active) and 0.134 µM (active), respectively. Moreover, the AC50 in data set [8] was 3.66 µM (active).

On to `CCOC(=O)C(Sc1ncnc2c1sc1nc(N3CCOCC3)c3c(c12)CCCC3)c1ccccc1` (centres undefined), for which the results for the AC50 on Cytochrome P450 2C19, on Cytochrome P450 2C9 and at Cytochrome P450 3A4 were 10 µM (inconclusive), 0.316 µM (inconclusive) and “inconclusive”, respectively.

As for `Cn1cccc1C(=O)N1CCC2(CC1)CCN(c1ccc(-c3ccccc3)cc1)CC2`, the values for the AC50 on Cytochrome P450 1A2 and on Cytochrome P450 3A4 were 20 µM (inconclusive) and “inconclusive”, respectively.

Regarding `Cc1nn(Cc2noc(C(=O)NC3CCC(C)CC3)n2)c(C)c1Br` (centres undefined), the concentration at half-maximal activity (AC50) is 3.28 µM (active) in data set [10] and 6.78 µM (active) in [11]. Besides, on Protein Wnt-3a, the IC50 is 4.35 µM (active).

On to `CN1CCN(c2ncc3nc(-c4ccc(F)cc4)c(=O)n(C4CC4)c3n2)CC1`, for which the AC50 is 25.1 µM (inconclusive) at Cytochrome P450 2C19 and “inconclusive” on Cytochrome P450 3A4.

In the case of `CCc1ccc(-c2nn(-c3ccccc3)cc2CSC(=N)N)cc1`, the CC50 in data set [12] is 13.7 µM (active). In addition, the 50% effective concentration (EC50) in [13] is 9.61 µM (active); in [14], 11.2 µM (active); with BJ [9] it was > 133 µM (inactive). In addition, in the data set on INS1, the AC50 is 8.15 µM (active).

Take `COc1ccccc1-c1cc(C(F)(F)F)nc(S(C)(=O)=O)n1`: the results for the EC50 in the data set “cells [15]”, in the data set “cells [16]” and on Protein RecA were > 350 µM (not active), > 350 µM (not active) and 10 µM (active), respectively. Moreover, the AC50 was 5.07 µM (active) in data set [8]; 6.81 µM (active) in data set [17]; 5.35 µM (active) in data set [18]; 4.06 µM (active) in [10]; 37.6 µM (active) in data set [19]; 12.4 µM (active) in [11]. Moreover, in data set [20], the IC50 is 3.63 µM (active).
